# Laboratory results reported in patent US20070059385A1, “Safe pharmaceutical composition for treating and preventing cancer and method of use” (priority 2005, published 2007).
# Read-outs that look alike come from different tables or passages of the source.
# Experiments:
# [1] = system: salmonella typhimurium strains TA97, TA98 and TA100; test: Salmonella mutagenicity assay, overall conclusion; details: conclusion from Table 14
# Experimental: (§1) The method for detecting mutagenicity of HHT, with the Salmonella system that detects the reversion of the bacteria from His^− to His^+, is widely used.
# (§2) The bacterial tester strains used for mutagenesis testing are TA97, TA98, TA100 and TA102. Mutagenesis testing method was done as described previously ^[77-88]. In brief, TA97, TA98, TA100 and TA102 were grown in agar gel culture. The petri plats (100×15 mm style) contain 30 ml with 2% glucose. The agar mixture was agitated vigorously and immediately poured into plates of minimal agar. The cultures were incubated at 37° C. in a dark and 5% CO2 in air for 48 hours. After 48 hours the colonies in both test and controls are counted. The presence of a background lawn of bacteria on the histidine-poor soft agar plate was used as an indication that gross toxic effects were absent. Mutagenicity assays were carried out at least in triplicate.
# (§3) The range of spontaneous mutation rates for the individual strains, which were considered to be acceptable, was TA97 (100-170), TA98 (20-40) and TA100 (80-150).
# [2] = Toxic dose for mice (LD50); assay type: in vivo
# [3] = system: NNK-induced lung tumorigenesis; test: NNK-induced lung tumorigenesis; assay type: in vivo; details: mice; drug 20 mg/kg daily by injection; 10 μmol NNK i.p.; pulmonary adenomas after sixteen weeks
# Experimental: Every group had 20 mice. […] For control group, each mouse was gave same volume of physiological saline. Three days later, mice were gave 10 μmol NNK (in 0.1 ml saline) by i.p. injection. Sixteen weeks after these treatments the mice were killed and pulmonary adenomas were counted. The statistical significance of bioassay data was determined by student's test.
# TA100 = test: Salmonella mutagenicity assay TA100
# Experimental: as §1, §2, §3
# [4] = dog, in vivo
# Description: Twenty normal adult dogs which weight approximately 10 kg±1 kg used in experiments.
# Most deaths were caused by cardiac dysfunction.
# [5] = Metabolism (organ and blood radioactivity) of [^3H]-HHT in P388 mice; assay type: in vivo; details: P388 mice, [^3H]-HHT 1 mg/kg
# Experimental: Animals: Adult DBA/2J male mice, 6 to 8 weeks old. All animals weighed approximately 25 g when used in experiments. Each member of which received identical dosed (i.p.) of HHT.
# Tumor: P388 leukemic cells induced in mice by inoculation with L1210 or P388 leukemic cells ([…]).
# After P388 induced in mice 5 days, 1 mg/kg of [^3H]-HHT (100 μC/mg) was injected to mice. Volumes were 0.01 ml/g body weight. […] The key data of HHT in metabolism process are determined counts per minute (CPM) of [^3H]-HHT in organs. CPM is determined by liquid scintillation counting (LSC). The methods of LSC combined with radioactive of [^3H]-HHT can be determined using a tracer of HHT in organs. After killed animals, organs and blood were obtained from P388 mice. Organs were weighted. 10 mg of organs were digested. 10 ml of scintillation solution (which containing […]) were added to digested solution and determined at LSC. Other processes are similar to the standard method.
smiles,measurement,setting,value
"COC(=O)C[C@](O)(CCCC(C)(C)O)C(=O)O[C@@H]1C(OC)=C[C@]23CCCN2CCc2cc4c(cc2[C@H]13)OCO4 [HHT, Homoharringtonine]",carcinogenic and mutagenic action,[1],no carcinogenic and mutagenic action
same,mice died,"[2]; 38 normal mice, 2 mg/kg/day×5, observation period of 5 days",about 50%
same,LD50,"[2]; mouse, in vivo, ip, mice, I.P.",3.17 ± 0.19 mg/kg
same,Tumor incidence (%),[3],35.8 ± 4.5%
same,Number of His^+ revertants/plate,"TA100; TA100 +S, 0.1 μg/plate",158 revertants/plate
same,Number of His^+ revertants/plate,"TA100; TA100 +S, 1 μg/plate",152 revertants/plate
same,Number of His^+ revertants/plate,"TA100; TA100 +S, 10 μg/plate",165 revertants/plate
same,Number of His^+ revertants/plate,"TA100; TA100 +S, 100 μg/plate",160 revertants/plate
same,Number of His^+ revertants/plate,"TA100; TA100 −S, 0.1 μg/plate",148 ± 12 revertants/plate
same,Number of His^+ revertants/plate,"TA100; TA100 −S, 1 μg/plate",140 ± 13 revertants/plate
same,Number of His^+ revertants/plate,"TA100; TA100 −S, 10 μg/plate",162 ± 17 revertants/plate
same,Number of His^+ revertants/plate,"TA100; TA100 −S, 100 μg/plate",158 ± 15 revertants/plate
same,major target organs involved in toxicity,[4],"limited to G.I. tract, heart and hematopoietic organs"
same,reversibility of toxicities,[4],completely reversible upon discontinuation of treatment
same,"Abnormality of ECG, ST-T",[4]; 0.1 mg/kg/day,−
same,Anorexia,[4]; 0.1 mg/kg/day,+
same,Cardiac necrosis,[4]; 0.1 mg/kg/day,−
same,Diarrhea,[4]; 0.1 mg/kg/day,±
same,Hepatic ecchymosis,[4]; 0.1 mg/kg/day,−
same,Hepatic fibrosis and cirrhosis,[4]; 0.1 mg/kg/day,−
same,Hepatic necrosis,[4]; 0.1 mg/kg/day,−
same,Marrow depression,[4]; 0.1 mg/kg/day,+
same,Renal necrosis,[4]; 0.1 mg/kg/day,−
same,Renal toxic nephropathy,[4]; 0.1 mg/kg/day,−
same,Seminal depression,[4]; 0.1 mg/kg/day,−
same,Spleen necrosis,[4]; 0.1 mg/kg/day,−
same,Vomiting,[4]; 0.1 mg/kg/day,+
same,"Abnormality of ECG, ST-T",[4]; 0.2 mg/kg/day,±
same,Anorexia,[4]; 0.2 mg/kg/day,++
same,Cardiac necrosis,[4]; 0.2 mg/kg/day,−
same,Diarrhea,[4]; 0.2 mg/kg/day,+
same,Hepatic ecchymosis,[4]; 0.2 mg/kg/day,−
same,Hepatic fibrosis and cirrhosis,[4]; 0.2 mg/kg/day,−
same,Hepatic necrosis,[4]; 0.2 mg/kg/day,±
same,Marrow depression,[4]; 0.2 mg/kg/day,+
same,Renal necrosis,[4]; 0.2 mg/kg/day,−
same,Renal toxic nephropathy,[4]; 0.2 mg/kg/day,−
same,Seminal depression,[4]; 0.2 mg/kg/day,−
same,Spleen necrosis,[4]; 0.2 mg/kg/day,−
same,Vomiting,[4]; 0.2 mg/kg/day,+
same,"Abnormality of ECG, ST-T",[4]; 0.3 mg/kg/day,+
same,Anorexia,[4]; 0.3 mg/kg/day,+++
same,Cardiac necrosis,[4]; 0.3 mg/kg/day,±
same,Diarrhea,[4]; 0.3 mg/kg/day,+
same,Erythrocyte count,[4]; 0.3 mg/kg/day,3.40 ×10^6/mm^3
same,Hepatic ecchymosis,[4]; 0.3 mg/kg/day,±
same,Hepatic fibrosis and cirrhosis,[4]; 0.3 mg/kg/day,±
same,Hepatic necrosis,[4]; 0.3 mg/kg/day,+
same,Marrow depression,[4]; 0.3 mg/kg/day,++
same,Renal necrosis,[4]; 0.3 mg/kg/day,±
same,Renal toxic nephropathy,[4]; 0.3 mg/kg/day,±
same,Seminal depression,[4]; 0.3 mg/kg/day,−
same,Spleen necrosis,[4]; 0.3 mg/kg/day,±
same,Vomiting,[4]; 0.3 mg/kg/day,++
same,"CMP/mg organ, Bone",[5]; 1 hour,500 CMP/mg organ
same,"CMP/mg organ, Brain",[5]; 1 hour,499 CMP/mg organ
same,"CMP/mg organ, Contents of intestine",[5]; 1 hour,3323 CMP/mg organ
same,"CMP/mg organ, Contents of stomach",[5]; 1 hour,6821 CMP/mg organ
same,"CMP/mg organ, Heart",[5]; 1 hour,1403 CMP/mg organ
same,"CMP/mg organ, Intestine",[5]; 1 hour,1638 CMP/mg organ
same,"CMP/mg organ, Kidney",[5]; 1 hour,6501 CMP/mg organ
same,"CMP/mg organ, Liver",[5]; 1 hour,4145 CMP/mg organ
same,"CMP/mg organ, Lung",[5]; 1 hour,2100 CMP/mg organ
same,"CMP/mg organ, Spleen",[5]; 1 hour,2828 CMP/mg organ
same,"CMP/mg organ, Stomach",[5]; 1 hour,1626 CMP/mg organ
same,"CMP/mg organ, Bone",[5]; 3 hours,560 CMP/mg organ
same,"CMP/mg organ, Brain",[5]; 3 hours,646 CMP/mg organ
same,"CMP/mg organ, Contents of intestine",[5]; 3 hours,7215 CMP/mg organ
same,"CMP/mg organ, Contents of stomach",[5]; 3 hours,84375 CMP/mg organ
same,"CMP/mg organ, Heart",[5]; 3 hours,1800 CMP/mg organ
same,"CMP/mg organ, Intestine",[5]; 3 hours,3288 CMP/mg organ
same,"CMP/mg organ, Kidney",[5]; 3 hours,3121 CMP/mg organ
same,"CMP/mg organ, Liver",[5]; 3 hours,6718 CMP/mg organ
same,"CMP/mg organ, Lung",[5]; 3 hours,2427 CMP/mg organ
same,"CMP/mg organ, Spleen",[5]; 3 hours,2426 CMP/mg organ
same,"CMP/mg organ, Stomach",[5]; 3 hours,2321 CMP/mg organ
same,"CMP/mg organ, Bone",[5]; 6 hours,505 CMP/mg organ
same,"CMP/mg organ, Brain",[5]; 6 hours,793 CMP/mg organ
same,"CMP/mg organ, Contents of intestine",[5]; 6 hours,6250 CMP/mg organ
same,"CMP/mg organ, Contents of stomach",[5]; 6 hours,100719 CMP/mg organ
same,"CMP/mg organ, Heart",[5]; 6 hours,1193 CMP/mg organ
same,"CMP/mg organ, Intestine",[5]; 6 hours,2475 CMP/mg organ
same,"CMP/mg organ, Kidney",[5]; 6 hours,3501 CMP/mg organ
same,"CMP/mg organ, Liver",[5]; 6 hours,4109 CMP/mg organ
same,"CMP/mg organ, Lung",[5]; 6 hours,1788 CMP/mg organ
same,"CMP/mg organ, Spleen",[5]; 6 hours,2198 CMP/mg organ
same,"CMP/mg organ, Stomach",[5]; 6 hours,3703 CMP/mg organ
same,"CMP/mg organ, Bone",[5]; 24 hours,480 CMP/mg organ
same,"CMP/mg organ, Brain",[5]; 24 hours,986 CMP/mg organ
same,"CMP/mg organ, Contents of intestine",[5]; 24 hours,5009 CMP/mg organ
same,"CMP/mg organ, Contents of stomach",[5]; 24 hours,117914 CMP/mg organ
same,"CMP/mg organ, Heart",[5]; 24 hours,893 CMP/mg organ
same,"CMP/mg organ, Intestine",[5]; 24 hours,1067 CMP/mg organ
same,"CMP/mg organ, Kidney",[5]; 24 hours,1065 CMP/mg organ
same,"CMP/mg organ, Liver",[5]; 24 hours,2175 CMP/mg organ
same,"CMP/mg organ, Lung",[5]; 24 hours,1312 CMP/mg organ
same,"CMP/mg organ, Spleen",[5]; 24 hours,2156 CMP/mg organ
same,"CMP/mg organ, Stomach",[5]; 24 hours,1823 CMP/mg organ
